# Legend:
# [1] = human, in vivo
# [2] = patients taking lapatinib; cited from earlier work
Compound,gastric or duodenal toxicity [1],"patients with common side effects (rash, diarrhea, fatigue, palmar plantar erythrodysesthesia, nausea and vomiting) [2]"
CCOc1ccc(-c2cc(C)cn2-c2ccc(S(N)(=O)=O)cc2)cc1 [2-(4-ethoxyphenyl)-4-methyl-1-(4-sulfamoylphenyl)-pyrrole],no increase in gastric or duodenal toxicity,–
"CS(=O)(=O)CCNCc1ccc(-c2ccc3ncnc(Nc4ccc(OCc5cccc(F)c5)c(Cl)c4)c3c2)o1 [Lapatinib, N-(3-chloro-4-{[(3-fluorophenyl)methyl]oxy}phenyl)-6-[5-({[2-methylsulfonyl)ethyl]amino}methyl)-2-furanyl]-4-quinazolinamine bis(4-methylbenzenesulfonate) monohydrate, bis(4-methylbenzenesulfonate) …]",–,greater than 20 % of patients

# From US20110306572A1, “COMBINATION THERAPY FOR THE TREATMENT OF CANCER USING COX-2 INHIBITORS AND DUAL InHIBITORS OF EGFR [ErbB1] AND HER-2 [ErbB2]” (TRAGARA PHARMACEUTICALS, INC, priority 2007, published 2011)
